Data on 15 compounds can be found in PMC6753678, “Fueling Open Innovation for Malaria Transmission-Blocking Drugs: Hundreds of Molecules Targeting Early Parasite Mosquito Stages” (Frontiers in Microbiology, 2019).

Molecules are shown by their SMILES. Where two headings read alike, the source gives them in different places.

The test system of series [1] is 3D7-strain P. falciparum asexual parasites. The experiment in a line: P. falciparum asexual growth inhibition assay (Pf GIA). Particulars: dose response confirmation; read-out: Pf asexual growth inhibition assays IC50. It counts as cell-based, Plasmodium falciparum. The procedure, abridged: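 LDH readout: absorbance at 650 nm after 10 min at room temperature with lactate/APAD/NBT/diaphorase mix on thawed plates. Cultures (0.25% parasitemia, 2% hematocrit) were treated 72 h at 37°C in low-oxygen gas. Inhibition was normalised to 50 μM chloroquine and DMSO; n=3 biological replicates.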

For another series, the system named is HepG2 cells. The experiment in a line: HepG2 cytotoxicity assay. Particulars: for Unified cytotox: HepG2 values of the three screens unified; for IC50: read-out: HepG2 cytotoxicity assay IC50, dose response confirmation; for Pb ODA (this manuscript) HepG2 cytoxicity: HepG2 cytotoxicity listed with the Pb ODA data set (this manuscript). The gist of the method: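 HepG2 cells, 2,500 per well in MEM with 10% FBS and 1% NEAA, exposed to compounds for 48 h at 37°C, 5% CO2. Viability read by fluorescence; percent inhibition relative to 50 μM doxorubicin and DMSO controls.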

Series [2] relates to P. berghei ookinete development. The note with it: for % inhibition, Replicate A / % inhibition, Replicate B: primary screen at 1 μM.
The mark [3] stands for this setting: read-out: Pb Ookinete development assay IC50.
The mark [4] stands for this setting: read-out: Pb ODA IC50, this manuscript.
Setting [5] is: read-out: Pb Ookinete development assay IC50, dose response confirmation.
[6] abbreviates: read-out: Pb ODA (this manuscript) IC50, P. berghei ookinete development assay, this manuscript.

By IC50 is commonly meant the midpoint of a concentration-inhibition curve. For the compound `CCC(C)(C)n1c(C)cc2c3c(N)nc(N)nc3ccc21` [TCMDC-137307], in series [1], the IC50 was determined as 0.9 nM. Moreover, in the series on HepG2 cells, the “HepG2 cytoxicity (Pb ODA, this manuscript)” value stood at 0.00169 µM; the Unified cytotox is 0.00169 µM; the IC50 came to 1.69 nM. Besides, in series [2], the “% inhibition, Replicate A” value is listed as 47.56% and the “% inhibition, Replicate B” value is 73.34%. In series [2] (read-out: Pb ODA IC50), the half-maximal inhibitory concentration (IC50) came to 1190 nM. The IC50 in series [2] (setting [3]) was 1190 nM.

Turning to `CCc1cc2c3c(N)nc(N)nc3ccc2n1C(C)CC` (stereo not shown) [TCMDC-137308], in series [1], the IC50 is less than 0.2 nM. For the same compound, in the series on HepG2 cells, the “HepG2 cytoxicity (Pb ODA, this manuscript)” value amounted to 0.0017 µM; the Unified cytotox amounted to 0.0017 µM; the IC50 came out at 1.7 nM. Besides, the “Is compound selective in assay? Pb ODA active?” value (“Is compound selective” below) in series [2] (1: YES, 0: NO) is reported as 0 (0: NO). In series [2], the “% inhibition, Replicate A” value turned out to be 67.31% and the “% inhibition, Replicate B” value turned out to be 61.54%. The IC50 in series [2] (setting [4]) amounted to 690 nM. Moreover, in series [2] (setting [5]), the IC50 was 694 nM.

On to `CCCc1cc2c3c(N)nc(N)nc3ccc2n1C(CC)CC` [TCMDC-137312], for which, in series [1], the 50% inhibitory concentration (IC50) was less than 0.2 nM. In the series on HepG2 cells, the “HepG2 cytoxicity (Pb ODA, this manuscript)” value turned out to be 0.0017 µM; the Unified cytotox amounted to 0.0017 µM; the IC50 is 1.7 nM. Besides, the “Is compound selective” value in series [2] (1: YES, 0: NO) is given as 0 (0: NO). Also, in series [2], the “% inhibition, Replicate A” value is 47.03% and the “% inhibition, Replicate B” value is given as 71.34%. For the same compound, in series [2] (setting [4]), the IC50 was determined as 460 nM. Besides, the IC50 in series [2] (setting [5]) is 463 nM.

For `CCC(CC)n1c(COC)cc2c3c(N)nc(N)nc3ccc21` [TCMDC-137313], the IC50 in series [1] is less than 0.2 nM. In addition, in the series on HepG2 cells, the “HepG2 cytoxicity (Pb ODA, this manuscript)” value is 0.0017 µM; the Unified cytotox came to 0.0017 µM; the IC50 is 1.7 nM. For the same compound, the “Is compound selective” value in series [2] (1: YES, 0: NO) is reported as 0 (0: NO). Moreover, in series [2], the “% inhibition, Replicate A” value came out at 74.51% and the “% inhibition, Replicate B” value was 66.56%. In addition, the IC50 in series [2] (setting [4]) was 1350 nM. For the same compound, the IC50 in series [2] (setting [5]) was 1350 nM.

On to `COc1cc(Cn2ccc3c4c(N)nc(N)nc4ccc32)cc(OC)c1OC` [TCMDC-137341], for which the IC50 in series [1] was less than 0.3 nM; in the series on HepG2 cells, 1.7 nM; in series [2] (read-out: Pb ODA IC50) it was 560 nM; in series [2] (setting [3]), 556 nM. Moreover, the “HepG2 cytoxicity (Pb ODA, this manuscript)” value in the series with HepG2 cells came out at 0.0017 µM. Moreover, in the series on HepG2 cells, the Unified cytotox stood at 0.0017 µM. Moreover, in series [2], the “% inhibition, Replicate A” value amounted to 61.35%. In addition, in series [2], the “% inhibition, Replicate B” value amounted to 58.11%.

For `CNCCN(C)C(=O)Oc1c(Br)c(C)nc(C)c1-c1ccc(Oc2ccc(OC(F)(F)F)cc2)cc1.Cl` [TCMDC-137377], the IC50 in series [1] is 71 nM. Besides, in the series with HepG2 cells, the “Pb ODA (this manuscript) HepG2 cytoxicity” value was found to be 8.32 µM and the IC50 is 8320 nM. In series [2], the “Is compound selective” value is given as 0 (key: 1: YES; 0: NO); the “% inhibition, Replicate A” value is on record as 132.58%; the “% inhibition, Replicate B” value is recorded as 124.21%. Besides, the half-inhibitory concentration (IC50) in series [2] (setting [6]) is 1480 nM. In addition, the half-inhibitory concentration (IC50) in series [2] (setting [5]) stood at 1480 nM.

Consider `Cc1[nH]c(C)c(-c2ccc(Oc3ccc(Cl)cc3)cc2)c(=O)c1C` [TCMDC-137378], for which the IC50 in series [1] was less than 0.2 nM; in the series with HepG2 cells, 8610 nM; in series [2] (setting [4]), 640 nM; in series [2] (setting [5]) it was 636 nM. In addition, the “HepG2 cytoxicity (Pb ODA, this manuscript)” value in the series with HepG2 cells turned out to be 8.61 µM. In the series with HepG2 cells, this compound displayed a Unified cytotox of 8.61 µM. Further, the “Is compound selective” value in series [2] (1: YES, 0: NO) is reported as 1 (1: YES). Moreover, the “% inhibition, Replicate A” value in series [2] is listed as 87.44%. Besides, the “% inhibition, Replicate B” value in series [2] worked out at 100.49%.

On to `Cc1nc(C)c(-c2ccc(Oc3ccc(OC(F)(F)F)cc3)cc2)c(OC(=O)c2ccccc2)c1Cl` [TCMDC-137380], for which the IC50 in series [1] was 173 nM. Also, in the series on HepG2 cells, the “Pb ODA (this manuscript) HepG2 cytoxicity” value stood at 37.58 µM and the IC50 was determined as 37600 nM. In addition, in series [2], the “Is compound selective” value is 1 (key: 1: YES; 0: NO); the “% inhibition, Replicate A” value worked out at 56.36%; the “% inhibition, Replicate B” value was determined as 103.63%. Also, the half-maximal inhibitory concentration (IC50) in series [2] (setting [5]) came out at 860 nM.

As to `CC(=O)Oc1c(Cl)c(C)nc(C)c1-c1ccc(Oc2ccc(Cl)cc2)cc1` [TCMDC-137381], the half-maximal inhibitory concentration (IC50) in series [1] amounted to 34 nM; with HepG2 cells, 2630 nM; in series [2] (setting [6]), 100 nM; in series [2] (setting [5]) it was 98 nM. Besides, the “Pb ODA (this manuscript) HepG2 cytoxicity” value in the series with HepG2 cells amounted to 2.63 µM. For the same compound, in series [2], the “Is compound selective” value was 1 (key: 1: YES; 0: NO). The “% inhibition, Replicate A” value in series [2] is on record as 96.93%. The “% inhibition, Replicate B” value in series [2] is recorded as 129.91%.

`Cc1nc(C)c(-c2ccc(Oc3ccc(OC(F)(F)F)cc3)cc2)c(OC(=O)c2ccc(CN(C)C)cc2)c1Cl` [TCMDC-137382]: the half-maximal inhibitory concentration (IC50) in series [1] was found to be 127 nM; in the series with HepG2 cells, 24600 nM; in series [2] (setting [6]) it was 460 nM; in series [2] (setting [5]) it was 462 nM. Besides, the “Pb ODA (this manuscript) HepG2 cytoxicity” value in the series on HepG2 cells is 24.55 µM. Besides, in series [2], the “Is compound selective” value is 1 (key: 1: YES; 0: NO). Also, the “% inhibition, Replicate A” value in series [2] came to 93.07%. Also, the “% inhibition, Replicate B” value in series [2] is recorded as 108.44%.

Turning to `CC(=O)Oc1c(Br)c(C)nc(C)c1-c1ccc(Oc2ccc(OC(F)(F)F)cc2)cc1` [TCMDC-137383], in series [1], the IC50 turned out to be 150 nM. Moreover, in the series with HepG2 cells, the “Pb ODA (this manuscript) HepG2 cytoxicity” value is 9.89 µM and the half-maximal inhibitory concentration (IC50) was 9890 nM. In series [2], the “Is compound selective” value is on record as 1 (key: 1: YES; 0: NO); the “% inhibition, Replicate A” value was 98.12%; the “% inhibition, Replicate B” value is 79.70%. In series [2] (setting [6]), the half-inhibitory concentration (IC50) stood at 590 nM. Also, the IC50 in series [2] (setting [5]) was 589 nM.

`CC(=O)Oc1c(Cl)c(C)nc(C)c1-c1ccc(Oc2ccc(OC(F)(F)F)cc2)cc1` [TCMDC-137385]: the IC50 in series [1] amounted to 75 nM. Also, in the series with HepG2 cells, the “Pb ODA (this manuscript) HepG2 cytoxicity” value is on record as 31.99 µM and the IC50 is 32000 nM. Besides, in series [2], the “Is compound selective” value is 1 (key: 1: YES; 0: NO); the “% inhibition, Replicate A” value is recorded as 89.00%; the “% inhibition, Replicate B” value is recorded as 125.42%. Moreover, the 50% inhibitory concentration (IC50) in series [2] (setting [6]) worked out at 1020 nM. The IC50 in series [2] (setting [5]) was found to be 1020 nM.

For `Cc1[nH]c(C)c(-c2ccc(Oc3cccc(OC(F)(F)F)c3)cc2)c(=O)c1Cl` [TCMDC-137389], the IC50 in series [1] amounted to 470 nM; in the series on HepG2 cells, 100000 nM; in series [2] (setting [6]), 1130 nM; in series [2] (setting [5]), 1130 nM. Moreover, the “Pb ODA (this manuscript) HepG2 cytoxicity” value with HepG2 cells is 100.00 µM. In addition, the “Is compound selective” value in series [2] is on record as 1 (key: 1: YES; 0: NO). The “% inhibition, Replicate A” value in series [2] is given as 25.35%. Further, the “% inhibition, Replicate B” value in series [2] is 53.00%.

As to `Cc1nc(C)c(-c2ccc(Oc3cc(Cl)cc(Cl)c3)cc2)c(O)c1Cl` [TCMDC-137391], the half-inhibitory concentration (IC50) in series [1] is 1.1 nM. Also, in the series with HepG2 cells, the “Pb ODA (this manuscript) HepG2 cytoxicity” value was determined as 0.0017 µM and the IC50 is 1.7 nM. In addition, in series [2], the “Is compound selective” value is given as 0 (key: 1: YES; 0: NO); the “% inhibition, Replicate A” value stood at 91.21%; the “% inhibition, Replicate B” value is recorded as 90.22%. Also, the IC50 in series [2] (setting [6]) came to 310 nM. The IC50 in series [2] (setting [5]) was 311 nM.

Regarding `Cc1nc(C)c(-c2ccc(Oc3cc(Cl)cc(Cl)c3)cc2)c(O)c1Br` [TCMDC-137392], the IC50 in series [1] came out at 498 nM; with HepG2 cells it was 20000 nM; in series [2] (setting [4]), 450 nM; in series [2] (setting [5]) it was 447 nM. Further, in the series on HepG2 cells, the “HepG2 cytoxicity (Pb ODA, this manuscript)” value was found to be 19.95 µM. The compound also yielded a Unified cytotox with HepG2 cells of 19.95 µM. Also, the “Is compound selective” value in series [2] (1: YES, 0: NO) was 1 (1: YES). In series [2], the “% inhibition, Replicate A” value turned out to be 78.18%. The “% inhibition, Replicate B” value in series [2] is recorded as 115.81%.
